Test results taken from patent EP0863148A1, “Compounds derived from adenosine, use of such compound as a medicament, method for synthesizing such a compound and intermediates thereof” (K.U. LEUVEN RESEARCH & DEVELOPMENT, priority 1997, dated 1998).

What was measured:
adenosine A1 receptor = target: T1, adenosine A1 receptor (Rattus norvegicus, UniProt P25099); assay: Radioligand binding assay, displacement of [3H]DPCPX, in the absence and presence of 1 mM GTP; settings: for Ki: rat brain cortex, [3H]DPCPX; for GTP shift: ratio of the apparent Ki values in the presence and absence of 1 mM GTP
T1 construct: adenosine A1 receptor in rat brain cortex; from tissue; host or cells: rat brain cortex
T1 sequence (P25099 1-326): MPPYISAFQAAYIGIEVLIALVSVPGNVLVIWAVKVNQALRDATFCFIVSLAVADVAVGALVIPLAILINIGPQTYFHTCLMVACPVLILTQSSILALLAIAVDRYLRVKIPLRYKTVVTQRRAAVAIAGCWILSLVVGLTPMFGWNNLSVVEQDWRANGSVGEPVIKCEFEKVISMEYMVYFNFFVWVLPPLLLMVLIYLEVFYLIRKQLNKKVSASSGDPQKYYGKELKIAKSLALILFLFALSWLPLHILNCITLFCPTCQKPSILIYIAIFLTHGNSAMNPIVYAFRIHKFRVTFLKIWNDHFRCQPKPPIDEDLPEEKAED
Method: The compounds were assayed for A1 affinity (Ki values expressed in µM) using the tritiated antagonist [^3H]-1,3-dipropyl-8-cyclopentylxanthine (DPCPX). Displacement experiments were performed in the absence and presence of 1 mM GTP, allowing the determination of the GTP shift (i.e., the ratio of the apparant Ki values in the presence and absence of GTP, respectively). This shift is an in vitro parameter often indicative for intrinsic activity.

A2a receptors = assay: Selectivity for A1 vs A2a receptors (method not described); type: binding
A1 receptor = target: T2, A1 receptor (Homo sapiens, UniProt P30542); settings: cited from earlier work
T2 sequence (P30542 1-326): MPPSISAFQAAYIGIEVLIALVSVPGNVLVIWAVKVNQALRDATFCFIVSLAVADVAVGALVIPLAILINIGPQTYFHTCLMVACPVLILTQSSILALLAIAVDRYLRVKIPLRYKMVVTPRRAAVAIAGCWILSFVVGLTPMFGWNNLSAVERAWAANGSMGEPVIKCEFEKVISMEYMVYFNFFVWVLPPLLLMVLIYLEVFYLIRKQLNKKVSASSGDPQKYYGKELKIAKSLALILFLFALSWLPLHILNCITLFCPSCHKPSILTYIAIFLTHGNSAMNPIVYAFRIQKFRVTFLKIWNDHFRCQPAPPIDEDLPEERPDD

Chain of A2a receptors (P29274 whole entry): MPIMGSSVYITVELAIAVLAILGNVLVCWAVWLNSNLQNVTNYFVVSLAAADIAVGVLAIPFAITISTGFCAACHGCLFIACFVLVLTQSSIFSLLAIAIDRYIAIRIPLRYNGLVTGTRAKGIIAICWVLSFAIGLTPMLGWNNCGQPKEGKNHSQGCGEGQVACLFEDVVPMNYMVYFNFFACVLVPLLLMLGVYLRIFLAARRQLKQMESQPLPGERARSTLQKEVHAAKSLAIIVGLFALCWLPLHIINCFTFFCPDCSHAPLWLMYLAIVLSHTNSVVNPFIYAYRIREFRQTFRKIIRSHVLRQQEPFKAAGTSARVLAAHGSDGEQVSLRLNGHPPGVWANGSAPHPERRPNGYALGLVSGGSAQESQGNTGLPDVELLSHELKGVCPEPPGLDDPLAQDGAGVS

Question: With `O=C(N[C@@H]1[C@@H](O)[C@H](n2cnc3c(NC4CCCC4)ncnc32)O[C@@H]1CO)c1ccccc1` [a, 9-(3-Benzamido-3-deoxy-β-D-xylofuranosyl)-N^6-cyclopentyladenine] as the molecule, how does the Ki (adenosine A1 receptor; absence of GTP) read?
Answer: The Ki was 400 ± 130 nM.

Question: And the Ki (adenosine A1 receptor; presence of 1 mM GTP)?
Answer: Its Ki is 310 ± 50 nM.

Question: And the GTP shift (adenosine A1 receptor)?
Answer: Its GTP shift is 0.80±0.13.

Question: Which results are given for `Nc1ncnc2c1ncn2[C@@H]1O[C@H](CO)C[C@H]1O` [3'-deoxyadenosine, reference compound]?
Answer: Ki (adenosine A1 receptor; absence of GTP): 7120 ± 3620 nM; Ki (adenosine A1 receptor; presence of 1 mM GTP): 15200 ± 2000 nM; GTP shift (adenosine A1 receptor): 2.1±1.4

Question: Which “affinity for A1 receptors” value (adenosine A1 receptor; stated in words) does the source give for `[N-]=[N+]=NC1C(CO)OC(n2cnc3c(NC4CCCC4)ncnc32)C1O` (stereo not shown) [compound 3] here?
Answer: The value was “relatively poor affinity”.

Question: With `Cc1ccc(C(=O)N[C@@H]2[C@@H](O)[C@H](n3cnc4c(NC5CCCC5)ncnc43)O[C@@H]2CO)cc1C` [c, 9-[3-Deoxy-3-(3,4-dimethylbenzamido)-β-D-xylofuranosyl]-N^6-cyclopentyladenine] as the molecule, how does the Ki (adenosine A1 receptor; absence of GTP) read?
Answer: Its Ki is 23.6 ± 2.5 nM.

Question: What about the Ki (adenosine A1 receptor; presence of 1 mM GTP) of the same molecule?
Answer: The Ki was 17.4 ± 4.2 nM.

Question: What about the GTP shift (adenosine A1 receptor) of the same molecule?
Answer: The GTP shift was 0.73±0.11.

Question: What about the “selectivity for A1 vs A2a receptors” value (A2a receptors) of the same molecule?
Answer: The value was 160 times.

Question: For `C[C@H](Cc1ccccc1)Nc1ncnc2c1ncn2[C@@H]1O[C@H](CO)C[C@H]1O` [3'-deoxy-R-PIA], which drop in affinity (A1 receptor; A1 receptor affinity, removal of the 3'-hydroxyl group of R-PIA) is on record?
Answer: Its drop in affinity is 30 fold.

Question: Which Ki (adenosine A1 receptor; absence of GTP) does the source give for `O=C(N[C@@H]1[C@@H](O)[C@H](n2cnc3c(NC4CCCC4)ncnc32)O[C@@H]1CO)c1ccc(Cl)c(Cl)c1` [d, 9-[3-Deoxy-3-(3,4-dichlorobenzamido)-β-D-xylofuranosyl]-N^6-cyclopentyladenine] here?
Answer: The Ki was 32.5 ± 0.31 nM.

Question: And the Ki (adenosine A1 receptor; presence of 1 mM GTP)?
Answer: The Ki was 23.7 ± 1.4 nM.

Question: And the GTP shift (adenosine A1 receptor)?
Answer: Its GTP shift is 0.73±0.09.

Question: What does the source list for `Cc1ccc(C(=O)N[C@@H]2[C@@H](O)[C@H](n3cnc4c(NC5CCCC5)ncnc43)O[C@@H]2CO)cc1` [b, 9-[3-Deoxy-3-(4-methylbenzamido)-β-D-xylofuranosyl]-N^6-cyclopentyladenine]?
Answer: Ki (adenosine A1 receptor; absence of GTP): 83 ± 15 nM; Ki (adenosine A1 receptor; presence of 1 mM GTP): 68 ± 10 nM; GTP shift (adenosine A1 receptor): 0.84±0.19

Question: With `OCC1CC(O)C(n2cnc3c(NC4CCCC4)ncnc32)O1` (stereo not shown) [3'-deoxy-CPA, reference compound] as the molecule, how does the Ki (adenosine A1 receptor; absence of GTP) read?
Answer: Its Ki is 110 ± 30 nM.

Question: And the Ki (adenosine A1 receptor; presence of 1 mM GTP)?
Answer: The Ki was 470 ± 40 nM.

Question: And the GTP shift (adenosine A1 receptor)?
Answer: Its GTP shift is 4.3±1.2.

Question: What about the “affinity for the A1 receptor” value (A1 receptor; stated in words, background) of the same molecule?
Answer: Its value is “submicromolar affinity”.
